We go through four substances from patent publication US6448239B1, “Peroxynitrite decomposition catalysts and methods of use thereof” (Trustees of Princeton University, priority 1999, dated 2002).

One data set has as its system plasmid pBR322. In words: Cleavage of plasmid DNA with manganese pyridyl porphyrins, agarose gel. Particulars: 1 mM Mn porphyrin, 50 μg/mL plasmid, 10 mM or 25 mM oxone, 5 min.
The subject of a further data set is calf thymus DNA (CT-DNA). Nature of the data set: Calf thymus-DNA titration (UV-visible spectrum). Format: binding. On the procedure: A 5 μM solution of 4-T(CX)PyP was prepared in 10 mM tris buffer+1 mM EDTA (pH=8.0). To 2 mL of this solution in a quartz cuvette, 1 μL aliquots of a 1.89 mM solution of calf thymus DNA (CT-DNA) in 10 mM tris+1 mM EDTA were added. The concentration of CT-DNA was determined by UV-visible spectrum. After each addition, the cuvette was vortexed to ensure good mixing, and the UV-visible spectrum was recorded. […] Several intermediate spectra were omitted for clarity.
The porphyrin 2-T(CX)PyP was titrated in an analogous way to 4-T(CX)PyP, as described above. […] Presumably, the ortho carboxamide groups provide sufficient steric bulk to prevent association of the positively-charged pyridyl groups with the negatively-charged sugar phosphate backbone. Even when CT-DNA was added in large excess to the solution of porphyrin, a redshift of only […] was observed.

Excerpt for plasmid pBR322: Three forms of plasmid DNA are expected when Mn porphyrins interact with and cleave DNA, and they can be easily separated on an agarose gel. Uncleaved, supercoiled plasmid (Form I) will show the greatest mobility. In the event of a nick in the DNA, the supercoils will relax, and the open circular form of the plasmnid (Form II) will appear. Further oxidation will cleave the second strand of DNA as well, and leads to a linear form (Form III.) The relative electrophoretic mobilities are as follows: I>III>II.
Two concentrations of oxidant were used: 10 mM and 25 mM. All experiments were performed in 40 mM tris buffer+100 mM NaCl. […] Before reaction, porphyrin was allowed to incubate with plasmid for 30 min.
A typical reaction was performed as follows: to a solution of 1 mM manganese porphyrin and 50 μg/mL plasmid in buffer was added enough oxone to make a final concentration of 10 mM or 25 mM. (Volume of the entire reaction was 20 μL.) The reaction mixture was vortexed, then allowed to react for 5 min. HEPES buffer (100 mM) was added to stop the reaction.
Each sample was electrophoresed on a 1% agarose slab horizontal gel at 90V for 1 h at 24° C. in 40 mM tris-acetate (TAE) and 1 mM ETDA buffer. The agarose gel contained ethidium bromide (1 μg/mL) so that the lanes could be visualized by UV-vis, and the finished gel was photographed under UV illumination. Lanes 1-4 were run at 10 mM oxone, and lanes 5-8 were run at 25 mM oxone. The control lanes, C1 and C2, contained 10 mM and 25 mM oxone, respectively, but no porphyrin. […] The lane assignments include the following: lane 1: Mn 4-T(CX)PyP, lane 2: Mn 2-T(CX)PyP; lane 3, Mn 2-T(PEG3)PyP; lane 4: Mn 4-TMPyP; lane C1: plasmid+10 mM oxone; lane C2: Plasmid+25 mM oxone

On to “Mn(III) 2-tetrakis(carboxamide)pyridyl porphyrin [Mn 2-T(CX)PyP]”, for which the “appearance of linear form of DNA (Form III)” value in the data set with plasmid pBR322 is reported as “does not appear at all”. Turning to “Mn(III) 4-tetrakis(carboxamide)pyridyl porphyrin [Mn 4-T(CX)PyP]”, in the data set with plasmid pBR322, the “degree of plasmid cleavage” value was “greatest degree of plasmid cleavage”. “4-Tetrakis(carboxamide)pyridyl Porphyrin [4-T(CX)PyP]”: in the data set with calf thymus DNA (CT-DNA) (5 μM porphyrin, 10 mM tris + 1 mM EDTA pH=8.0), the “redshift of Soret band (Δλmax)” value was 12 nm. Also, in the data set on calf thymus DNA (CT-DNA) (calculated from the titration), the “binding constant to DNA” value is 7.99×10^6. In the data set on calf thymus DNA (CT-DNA) (from change in Soret band), the “association with DNA (in words)” value is “both porphyrin intercalation into DNA and outside stacking of porphyrin along the DNA backbone”. Take “Mn(III) 2-tetrakis(triethylene glycol monomethyl ether)pyridyl porphyrin [Mn 2-T(PEG3)PyP]”: the “appearance of linear form of DNA (Form III)” value in the data set on plasmid pBR322 is on record as “does not appear at all”.
